{"source": "patent US7563570B2", "about": "“Method of determining a chemotherapeutic regimen for non small cell lung cancer based on BRCA1 expression” (Pangaea Biotech, priority 2004, dated 2009)", "key": {"[1]": {"test_system": "breast cancer cell line", "settings": "BRCA1 mRNA determined by RT-QPCR; cited from earlier work"}, "[2]": {"test_system": "non-small-cell lung cancer (NSCLC) patients", "test": "Neoadjuvant gemcitabine/cisplatin followed by surgery in stage IIB, IIIA and IIIB NSCLC patients, outcome by quartile of tumor BRCA1 mRNA expression", "assay_type": "in vivo, human", "protocol": "In all patients, neoadjuvant chemotherapy was indicated after evaluation by a thoracic surgeon, a radiologist, a medical oncologist, and a radiation oncologist. Patients received three cycles of neoadjuvant chemotherapy; 51 received cisplatin 100 mg/m^2 day 1 plus gemcitabine 1250 mg/m^2 days 1 and 8 every 21 days, and four received carboplatin AUC=5 day 1 plus gemcitabine 1000 mg/m^2 days 1 and 8 every 21 days. A thoracotomy was performed within four to five weeks after the last chemotherapy cycle; the surgical procedure was based on the extent of tumor at the time of the initial presentation.\nWe examined BRCA1 gene expression in formalin-fixed, paraffin-embedded surgical resected specimens from the 55 patients as previously described: Specht K, et al. (2001) Am. J. Pathol., 158, 419-429: “Quantitative gene expression analysis in microdissected archival formalin-fixed and paraffin-embedded tumor tissue”; Krafft A E, et al. (1997) Mol. Diagn., 3, 217-230: “Optimization of the isolation and amplification of RNA from formalin fixed, paraffin-embedded tissue: The Armed Forces Institute of Pathology experience and literature review”. After standard tissue sample deparaffinization using xylene and alcohols, samples were lysed in a tris-chloride, EDTA, sodium dodecyl sulphate (SDS) and proteinase K containing buffer. RNA was then extracted with phenol-chloroform-isoamyl alcohol followed by precipitation with isopropanol in the presence of glycogen and sodium acetate. RNA was resuspended in RNA storage solution (Ambion Inc; Austin Tex., USA) and treated with DNAse I to avoid DNA contamination. cDNA was synthesized using M-MLV retrotranscriptase enzyme. Template cDNA was added to Taqman Universal Master Mix (AB; Applied Biosystems, Foster City, Calif., USA) in a 12.5-μl reaction with specific primers and probe for each gene. The primer and probe sets were designed using Primer Express 2.0 Software (AB). Quantification of gene expression was performed using the ABI Prism 7900HT Sequence Detection System (AB). Primers and probe for BRCA1 mRNA expression analysis were designed according to the Ref Seq NM_007294 (www.ncbi.nlm.nih.gov/LocusLink). Forward primer is located in exon 8 (position 4292 bp to 4317 bp), reverse primer in exon 9 (position 4336 bp to 4360 bp), and probe in the exon 8/9 junction (position 4313 bp to 4333 bp). The PCR product size generated with these primers was 69 bp. The primers and 5′ labeled fluorescent reporter dye (6FAM) probe were as follows: β-actin: forward 5′ TGA GCG CGG CTA CAG CTT 3′, reverse 5′ TCCTTAATGTCACGCACGATTT 3′, probe 5′ ACC ACC ACG GCC GAG CGG 3′; BRCA1: forward 5′GGCTATCCTCTCAGAGTGACATTTTA 3′, reverse 5′ GCTTTATCAGGTTATGTTGCATGGT 3′, probe 5′ CCA CTC AGC AGA GGG 3′.\nRelative gene expression quantification was calculated according to the comparative Ct method using β-actin as an endogenous control and commercial RNA controls (Stratagene, La Jolla, Calif.) as calibrators. Final results, were determined as follows: 2^−(ΔCt sample−ΔCt calibrator), where ΔCT values of the calibrator and sample are determined by subtracting the CT value of the target gene from the value of the β-actin gene. In all experiments, only triplicates with a standard deviation (SD) of the Ct value <0.20 were accepted. In addition, for each sample analyzed, a retrotranscriptase minus control was run in the same plate to assure lack of genomic DNA contamination (FIG. 1).\nIn order to provide an easily interpretable evaluation of the effect of BRCA1 mRNA expression, gene expression values were divided into quartiles. Interpatient variation coefficients were calculated to assess similarities between quartiles. Hazard ratios were calculated with the univariate Cox model, and comparison between Kaplan-Meier survival curves was performed with the log-rank test. […]"}, "[3]": {"test_system": "Mouse models carrying conditional disruption of BRCA1", "settings": "cited from earlier work"}, "[4]": {"test_system": "SKOV-3 human ovarian cancer cell line", "settings": "cited from earlier work"}, "[5]": {"test_system": "HCC1937 breast cancer cell line", "settings": "HCC1937, BRCA1 reconstituted vs BRCA1-negative; cited from earlier work"}, "[6]": {"settings": "bottom quartile of BRCA1 levels"}, "[7]": {"settings": "bottom quartile of BRCA1 levels, listed as Gemcitabine/Cisplatin"}, "[8]": {"settings": "middle quartiles of BRCA1 levels"}, "[9]": {"settings": "middle quartiles of BRCA1 levels, listed as Gemcitabine/Cisplatin"}, "[10]": {"settings": "top quartile of BRCA1 levels, listed as Gemcitabine/Cisplatin"}}}
{"compound": "CC[C@]1(O)C[C@H]2CN(CCc3c([nH]c4ccccc34)[C@@](C(=O)OC)(c3cc4c(cc3OC)N(C=O)[C@H]3[C@@](O)(C(=O)OC)[C@H](OC(C)=O)[C@]5(CC)C=CCN6CC[C@]43[C@@H]65)C2)C1", "note": "[vincristine]", "values": [{"measurement": "Change of drug sensitivity on decreased BRCA1 mRNA expression", "setting": "[1]", "result": "greater resistance"}]}
{"compound": "gemcitabine/cisplatin", "values": [{"measurement": "Patients who attained a complete pathologic response (T0N0)", "setting": "[2]; all in the bottom quartile of BRCA1 levels", "result": "Five"}, {"measurement": "Median survival", "setting": "[2]; all patients", "result": 37.8, "unit": "months"}, {"measurement": "Risk of death, hazard ratio", "setting": "[2]; bottom quartile compared to top quartile, unstratified", "result": 0.187}, {"measurement": "Radiographic Response: Partial Response", "setting": "[2]; [6]", "result": 66.7, "unit": "%"}, {"measurement": "Radiographic Response: Stable Disease", "setting": "[2]; [6]", "result": "(33.3) %"}, {"measurement": "Surgical Results: Complete Resection", "setting": "[2]; [6]", "result": 93.3, "unit": "%"}, {"measurement": "Radiographic Response: Progressive Disease", "setting": "[2]; bottom quartile of BRCA1 levels, number of patients", "result": 0, "unit": "N"}, {"measurement": "Radiographic Response: Partial Response", "setting": "[2]; [7]", "result": "(66.7) %"}, {"measurement": "Surgical Results: Complete Resection", "setting": "[2]; [7]", "result": "(93.3) %"}, {"measurement": "Median survival", "setting": "[2]; bottom quartile of BRCA1 mRNA levels (0.28-0.61), 15 patients", "result": "not reached"}, {"measurement": "Radiographic Response: Partial Response", "setting": "[2]; [8]", "result": 57.1, "unit": "%"}, {"measurement": "Radiographic Response: Progressive Disease", "setting": "[2]; [8]", "result": "(7.1) %"}, {"measurement": "Radiographic Response: Stable Disease", "setting": "[2]; [8]", "result": "(35.7) %"}, {"measurement": "Surgical Results: Complete Resection", "setting": "[2]; [8]", "result": 78.6, "unit": "%"}, {"measurement": "Radiographic Response: Partial Response", "setting": "[2]; [9]", "result": "(57.1) %"}, {"measurement": "Surgical Results: Complete Resection", "setting": "[2]; [9]", "result": "(78.6) %"}, {"measurement": "Median survival", "setting": "[2]; patients who underwent lobectomy", "result": 51.9, "unit": "months"}, {"measurement": "Median survival", "setting": "[2]; patients who underwent pneumonectomy", "result": 25.8, "unit": "months"}, {"measurement": "Risk of death, hazard ratio", "setting": "[2]; stratified by clinical stage, bottom quartile compared to top quartile", "result": 0.220}, {"measurement": "Risk of death, hazard ratio", "setting": "[2]; stratified by clinical stage, two middle quartiles compared to top quartile", "result": 0.430}, {"measurement": "Risk of death, hazard ratio", "setting": "[2]; stratified by pathologic stage, bottom quartile compared to top quartile", "result": 0.206}, {"measurement": "Risk of death, hazard ratio", "setting": "[2]; stratified by pathologic stage, two middle quartiles compared to top quartile", "result": 0.294}, {"measurement": "Radiographic Response: Partial Response", "setting": "[2]; top quartile of BRCA1 levels", "result": 58.3, "unit": "%"}, {"measurement": "Radiographic Response: Progressive Disease", "setting": "[2]; top quartile of BRCA1 levels", "result": "(8.3) %"}, {"measurement": "Radiographic Response: Stable Disease", "setting": "[2]; top quartile of BRCA1 levels", "result": "(33.3) %"}, {"measurement": "Surgical Results: Complete Resection", "setting": "[2]; top quartile of BRCA1 levels", "result": 83.3, "unit": "%"}, {"measurement": "Radiographic Response: Partial Response", "setting": "[2]; [10]", "result": "(58.3) %"}, {"measurement": "Surgical Results: Complete Resection", "setting": "[2]; [10]", "result": "(83.3) %"}, {"measurement": "Median survival", "setting": "[2]; top quartile of BRCA1 mRNA levels (2.45-10.43), 12 patients", "result": 12.7, "unit": "months"}, {"measurement": "Risk of death, hazard ratio", "setting": "[2]; two middle quartiles compared to top quartile, unstratified", "result": 0.382}, {"measurement": "Median survival", "setting": "[2]; two middle quartiles of BRCA1 mRNA levels (0.65-2.37), 28 patients", "result": 37.8, "unit": "months"}]}
{"compound": "COc1cc([C@@H]2c3cc4c(cc3[C@@H](O[C@@H]3O[C@@H]5CO[C@@H](C)O[C@H]5[C@H](O)[C@H]3O)[C@H]3COC(=O)[C@H]23)OCO4)cc(OC)c1O", "note": "[etoposide]", "values": [{"measurement": "Change of drug sensitivity on decreased BRCA1 mRNA expression", "setting": "[1]", "result": "greater sensitivity"}]}
{"compound": "COc1cccc2c1C(=O)c1c(O)c3c(c(O)c1C2=O)C[C@@](O)(C(=O)CO)C[C@@H]3O[C@H]1C[C@H](N)[C@H](O)[C@H](C)O1", "note": "[doxorubicin]", "values": [{"measurement": "Sensitivity of BRCA1-disrupted mouse models", "setting": "[3]", "result": "highly sensitive"}]}
{"compound": "N.N.[Cl][Pt][Cl]", "note": "[cisplatin, cis-diaminodichloroplatinum]", "values": [{"measurement": "Change of drug resistance on upregulation of BRCA1 expression", "setting": "[4]", "result": "increased cisplatin resistance"}, {"measurement": "Change of drug sensitivity on decreased BRCA1 mRNA expression", "setting": "[1]", "result": "greater sensitivity"}, {"measurement": "Increase in resistance on reconstitution of wild-type BRCA1", "setting": "[5]", "result": 20, "unit": "fold"}]}
{"compound": "CC(=O)O[C@H]1C(=O)[C@@]2(C)[C@H]([C@H](OC(=O)c3ccccc3)[C@]3(O)C[C@H](OC(=O)[C@H](O)[C@@H](NC(=O)c4ccccc4)c4ccccc4)C(C)=C1C3(C)C)[C@]1(OC(C)=O)CO[C@@H]1C[C@@H]2O", "note": "[paclitaxel]", "values": [{"measurement": "Change of drug sensitivity on decreased BRCA1 mRNA expression", "setting": "[1]", "result": "greater resistance"}]}
{"compound": "CC/C(=C(\\c1ccccc1)c1ccc(OCCN(C)C)cc1)c1ccccc1", "note": "[tamoxifen]", "values": [{"measurement": "Sensitivity of BRCA1-disrupted mouse models", "setting": "[3]", "result": "resistant"}]}
